What follows are molecules tested against aldosterone synthase (CYP11B2) (Macaca fascicularis, UniProt A0A2K5UPL9) (assay: aldosterone synthase inhibition assay). Settings: cynomolgus adrenal gland mitochondria, 2 μM corticosterone, aldosterone quantified by mass spectrometry.
Chain of aldosterone synthase (CYP11B2) (A0A2K5UPL9 1-503): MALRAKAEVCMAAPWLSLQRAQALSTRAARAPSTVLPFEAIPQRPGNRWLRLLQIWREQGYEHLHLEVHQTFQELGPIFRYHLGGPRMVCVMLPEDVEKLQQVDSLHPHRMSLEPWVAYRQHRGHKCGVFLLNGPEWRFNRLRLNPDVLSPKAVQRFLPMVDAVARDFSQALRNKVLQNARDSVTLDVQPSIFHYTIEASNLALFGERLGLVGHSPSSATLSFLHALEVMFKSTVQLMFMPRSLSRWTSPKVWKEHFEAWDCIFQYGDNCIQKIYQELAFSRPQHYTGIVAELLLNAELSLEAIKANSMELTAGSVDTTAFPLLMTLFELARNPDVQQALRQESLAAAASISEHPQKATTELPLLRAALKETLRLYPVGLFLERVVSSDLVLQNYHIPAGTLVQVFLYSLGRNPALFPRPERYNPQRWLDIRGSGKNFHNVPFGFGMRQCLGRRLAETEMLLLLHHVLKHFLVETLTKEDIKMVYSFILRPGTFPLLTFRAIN
Type: biochemical, cynomolgus monkey
Method in brief: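 Cynomolgus adrenal mitochondria ([…]) used as CYP11B2 source with 2 μM corticosterone in 100 mM potassium phosphate pH 7.4, 1% DMSO; reaction started with 1 mM NADPH, run 60-90 min at 37° C. Aldosterone measured by mass spectrometry; IC50 from 4-parameter logistic fit, no-NADPH blank as 0%.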
`CCC(=O)NC1COCc2c(-c3ccc4cnn(C)c4c3)cncc21` (single isomer, unassigned) [Compound 155, N-[8-(1-Methyl-1H-indazol-6-yl)-3,4-dihydro-1H-pyrano[4,3-c]pyridin-4-yl]-propionamide] showed an IC50 of 3800 nM.
`CCC(=O)NC1COCc2c(-c3ccc4onc(C)c4c3)cncc21` (single isomer, unassigned) [Compound 156, N-[8-(3-Methyl-benzo[d]isoxazol-5-yl)-3,4-dihydro-1H-pyrano[4,3-c]pyridin-4-yl]-propionamide] gave an IC50 of 312 nM.
`CCS(=O)(=O)NC1COCc2c(-c3ccc4c(c3)CCC4=O)cncc21` (single isomer, unassigned) [Compound 157, Ethanesulfonic acid [8-(1-oxo-indan-5-yl)-3,4-dihydro-1H-pyrano[4,3-c]pyridin-4-yl]-amide] showed an IC50 of 46 nM.
Work on `CCS(=O)(=O)NC1COCc2c(-c3ccc4oc(=O)ccc4c3)cncc21` (single isomer, unassigned) [Compound 158, Ethanesulfonic acid [8-(2-oxo-2H-chromen-6-yl)-3,4-dihydro-1H-pyrano[4,3-c]pyridin-4-yl]-amide] yielded an IC50 of 13 nM.
With `CCS(=O)(=O)NC1COCc2c(-c3ccc4onc(C)c4c3)cncc21` (single isomer, unassigned) [Compound 159, Ethanesulfonic acid [8-(3-methyl-benzo[d]isoxazol-5-yl)-3,4-dihydro-1H-pyrano[4,3-c]pyridin-4-yl]-amide] the IC50 was 797 nM.
`NC(=O)N1CCCc2cc(-c3cncc4c3C(O)COC4)cnc21` (single isomer, unassigned) [Compound 161, 6-(4-Hydroxy-3,4-dihydro-1H-pyrano[3,4-c]pyridin-5-yl)-3,4-dihydro-2H-[1,8]naphthyridine-1-carboxylic acid amide] showed an IC50 of 35.3 nM.
`NC(=O)N1CCCc2cc(-c3cncc4c3C(O)COC4)cnc21` (single isomer, unassigned) [Compound 162, 6-(4-Hydroxy-3,4-dihydro-1H-pyrano[3,4-c]pyridin-5-yl)-3,4-dihydro-2H-[1,8]naphthyridine-1-carboxylic acid amide] showed an IC50 of 71.4 nM.
`NC(=O)N1CCCc2cc(-c3cncc4c3COCC4O)cnc21` (single isomer, unassigned) [Compound 163, 6-(4-Hydroxy-3,4-dihydro-1H-pyrano[4,3-c]pyridin-8-yl)-3,4-dihydro-2H-[1,8]naphthyridine-1-carboxylic acid amide] showed an IC50 of 44.3 nM.
`NC(=O)N1CCCc2cc(-c3cncc4c3COCC4O)cnc21` (single isomer, unassigned) [Compound 164, 6-(4-Hydroxy-3,4-dihydro-1H-pyrano[4,3-c]pyridin-8-yl)-3,4-dihydro-2H-[1,8]naphthyridine-1-carboxylic acid amide] gave an IC50 of 41.5 nM.
In the case of `Cn1ncc2ccc(-c3cncc4c3C(O)COC4)cc21` (single isomer, unassigned) [Compound 165, 5-(1-Methyl-1H-indazol-6-yl)-3,4-dihydro-1H-pyrano[3,4-c]pyridin-4-ol], the IC50 is reported as 224 nM.
With `Cn1ncc2ccc(-c3cncc4c3C(O)COC4)cc21` (single isomer, unassigned) [Compound 166, 5-(1-Methyl-1H-indazol-6-yl)-3,4-dihydro-1H-pyrano[3,4-c]pyridin-4-ol] the IC50 was 36.5 nM.
For `OC1COCc2cncc(-c3ccc4cnccc4c3)c21` (single isomer, unassigned) [Compound 167, 5-Isoquinolin-6-yl-3,4-dihydro-1H-pyrano[3,4-c]pyridin-4-ol], the IC50 was 156 nM.
Molecule `OC1COCc2cncc(-c3ccc4cnccc4c3)c21` (single isomer, unassigned) [Compound 168, 5-Isoquinolin-6-yl-3,4-dihydro-1H-pyrano[3,4-c]pyridin-4-ol] has an IC50 of 40.5 nM.
`Cn1ncc2ccc(-c3cncc4c3COCC4(C)O)cc21` (single isomer, unassigned) [Compound 169, 4-Methyl-8-(1-methyl-1H-indazol-6-yl)-3,4-dihydro-1H-pyrano[4,3-c]pyridin-4-ol] was tested, and the IC50 was 13.9 nM.
`Cn1ncc2ccc(-c3cncc4c3COCC4(C)O)cc21` (single isomer, unassigned) [Compound 170, 4-Methyl-8-(1-methyl-1H-indazol-6-yl)-3,4-dihydro-1H-pyrano[4,3-c]pyridin-4-ol] was tested, and the IC50 was 7.8 nM.
For `Cn1nc(F)c2ccc(-c3cncc4c3COCC4(C)O)cc21` (single isomer, unassigned) [Compound 171, 8-(3-Fluoro-1-methyl-1H-indazol-6-yl)-4-methyl-3,4-dihydro-1H-pyrano[4,3-c]pyridin-4-ol], the IC50 was 19.1 nM.
Molecule `Cn1nc(F)c2ccc(-c3cncc4c3COCC4(C)O)cc21` (single isomer, unassigned) [Compound 172, 8-(3-Fluoro-1-methyl-1H-indazol-6-yl)-4-methyl-3,4-dihydro-1H-pyrano[4,3-c]pyridin-4-ol] has an IC50 of 10.2 nM.
`Cn1ncc2c(C#N)cc(-c3cncc4c3COCC4(C)O)cc21` (single isomer, unassigned) [Compound 173, 6-(4-Hydroxy-4-methyl-3,4-dihydro-1H-pyrano[4,3-c]pyridin-8-yl)-1-methyl-1H-indazole-4-carbonitrile] showed an IC50 of 340 nM.
In the case of `Cn1ncc2c(C#N)cc(-c3cncc4c3COCC4(C)O)cc21` (single isomer, unassigned) [Compound 174, 6-(4-Hydroxy-4-methyl-3,4-dihydro-1H-pyrano[4,3-c]pyridin-8-yl)-1-methyl-1H-indazole-4-carbonitrile], the IC50 is reported as 4400 nM.
`Cn1ncc2c(F)cc(-c3cncc4c3COCC4(C)O)cc21` (single isomer, unassigned) [Compound 175, 8-(4-Fluoro-1-methyl-1H-indazol-6-yl)-4-methyl-3,4-dihydro-1H-pyrano[4,3-c]pyridin-4-ol] gave an IC50 of 21.6 nM.
For `Cn1ncc2c(F)cc(-c3cncc4c3COCC4(C)O)cc21` (single isomer, unassigned) [Compound 176, 8-(4-Fluoro-1-methyl-1H-indazol-6-yl)-4-methyl-3,4-dihydro-1H-pyrano[4,3-c]pyridin-4-ol], the IC50 was 13.4 nM.
For `Cn1nc(C#N)c2ccc(-c3cncc4c3COCC4(C)O)cc21` (single isomer, unassigned) [Compound 177, 6-(4-Hydroxy-4-methyl-3,4-dihydro-1H-pyrano[4,3-c]pyridin-8-yl)-1-methyl-1H-indazole-3-carbonitrile], the IC50 was 42.8 nM.
`Cn1nc(C#N)c2ccc(-c3cncc4c3COCC4(C)O)cc21` (single isomer, unassigned) [Compound 178, 6-(4-Hydroxy-4-methyl-3,4-dihydro-1H-pyrano[4,3-c]pyridin-8-yl)-1-methyl-1H-indazole-3-carbonitrile] was tested, and the IC50 was 15 nM.
`Cn1ncc2ccc(-c3cncc4c3C(C)(O)COC4)cc21` (single isomer, unassigned) [Compound 179, 4-Methyl-5-(1-methyl-1H-indazol-6-yl)-3,4-dihydro-1H-pyrano[3,4-c]pyridin-4-ol] showed an IC50 of 38.9 nM.
`Cn1ncc2ccc(-c3cncc4c3C(C)(O)COC4)cc21` (single isomer, unassigned) [Compound 180, 4-Methyl-5-(1-methyl-1H-indazol-6-yl)-3,4-dihydro-1H-pyrano[3,4-c]pyridin-4-ol] was tested, and the IC50 was 281 nM.
`O=C1CCc2nc(-c3cncc4c3COCC4O)ccc21` (single isomer, unassigned) [Compound 181, 2-(4-Hydroxy-3,4-dihydro-1H-pyrano[4,3-c]pyridin-8-yl)-6,7-dihydro-[1]pyrindin-5-one] gave an IC50 of 150 nM.
Work on `CC1(C)COc2ccc(-c3cncc4c3COCC4O)cc21` (single isomer, unassigned) [Compound 182, 8-(3,3-Dimethyl-2,3-dihydro-benzofuran-5-yl)-3,4-dihydro-1H-pyrano[4,3-c]pyridin-4-ol] yielded an IC50 of 496 nM.
Work on `O=C1CCc2cc(-c3cncc4c3COCC4O)ccc21` (single isomer, unassigned) [Compound 183, 5-(4-Hydroxy-3,4-dihydro-1H-pyrano[4,3-c]pyridin-8-yl)-indan-1-one] yielded an IC50 of 52 nM.
`CN(C)C1COCc2c(-c3ccc4cnn(C)c4c3)cncc21` (single isomer, unassigned) [Compound 185, Dimethyl-[8-(1-methyl-1H-indazol-6-yl)-3,4-dihydro-1H-pyrano[4,3-c]pyridin-4-yl]-amine] was tested, and the IC50 was 18 nM.
`N#CC1CC=C(c2cncc3c2COCC3O)CC1` (single isomer, unassigned) [Compound 186, 4-(4-Hydroxy-3,4-dihydro-1H-pyrano[4,3-c]pyridin-8-yl)-cyclohex-3-enecarbonitrile] gave an IC50 of 67 nM.
Molecule `Cn1ncc2c1C=C(c1cncc3c1COCC3O)CC2` (single isomer, unassigned) [Compound 187, 8-(1-Methyl-4,5-dihydro-1H-indazol-6-yl)-3,4-dihydro-1H-pyrano[4,3-c]pyridin-4-ol] has an IC50 of 12.9 nM.
`Cn1nnc2ccc(-c3cncc4c3COCC4O)cc21` (single isomer, unassigned) [Compound 188, 8-(3-Methyl-3H-benzotriazol-5-yl)-3,4-dihydro-1H-pyrano[4,3-c]pyridin-4-ol] was tested, and the IC50 was 21 nM.
`Cn1ncc2c1C=C(c1cncc3c1COCC3O)CC2` (single isomer, unassigned) [Compound 189, 8-(1-Methyl-4,5-dihydro-1H-indazol-6-yl)-3,4-dihydro-1H-pyrano[4,3-c]pyridin-4-ol] gave an IC50 of 67 nM.
With `Cn1ncc2c1CC(c1cncc3c1COCC3O)CC2` (single isomer, unassigned) [Compound 190, 8-(1-Methyl-4,5,6,7-tetrahydro-1H-indazol-6-yl)-3,4-dihydro-1H-pyrano[4,3-c]pyridin-4-ol] the IC50 was 340 nM.
Work on `Cn1ncc2c1CC(c1cncc3c1COCC3O)CC2` (single isomer, unassigned) [Compound 191, 8-(1-Methyl-4,5,6,7-tetrahydro-1H-indazol-6-yl)-3,4-dihydro-1H-pyrano[4,3-c]pyridin-4-ol] yielded an IC50 of 48 nM.
Work on `N#CC1CC=C(c2cncc3c2COCC3O)CC1` (single isomer, unassigned) [Compound 192, 4-(4-Hydroxy-3,4-dihydro-1H-pyrano[4,3-c]pyridin-8-yl)-cyclohex-3-enecarbonitrile] yielded an IC50 of 14 nM.
